The record followed here is US9724276B2, “Dental materials and method of manufacture” (Valspar Sourcing, Inc., priority 2012, dated 2017).

Structures are written as SMILES.

Test system in one data set: not listed separately
The experiment in a line: genotoxicity assays (e.g., Ames II assay).
Conditions: not given
`CC(C)(C)c1cc(Cc2cc(C(C)(C)C)c(OCC3CO3)c(C(C)(C)C)c2)cc(C(C)(C)C)c1OCC1CO1` (stereo not drawn) [Diglycidyl ether of 4,4′-methylenebis(2,6-di-tert-butylphenol)]: the genotoxicity result is “non-genotoxic”.

Another data set relates to MCF-7, clone WS8, cells. As to the kind of experiment: MCF-7 cell proliferation assay of estrogenic activity. The note with it: logarithmic (base 10) Relative Proliferative Effect relative to 17-beta estradiol, MCF-7 assay; values 'expected or measured'. Type of data set: cell-based, human. From the text: The MCF-7 assay is a useful test for assessing whether a polyhydric phenol compound is appreciably non-estrogenic. The MCF-7 assay uses MCF-7, clone WS8, cells to measure whether and to what extent a substance induces cell proliferation via estrogen receptor (ER)-mediated pathways. The method is described in “Test Method Nomination: MCF-7 Cell Proliferation Assay of Estrogenic Activity” submitted for validation by CertiChem, Inc. to the National Toxicology Program Interagency Center for the Evaluation of Alternative Toxicological Methods (NICEATM) on Jan. 19, 2006 (available online at iccvam.niehs.nih gov/methods/endocrine/endodocs/SubmDoc.pdf).
A brief summary of the method of the aforementioned MCF-7 assay is provided below. MCF-7, clone WS8, cells are maintained at 37° C. in RMPI (or Roswell Park Memorial Institute medium) containing Phenol Red (e.g., GIBCO Catalog Number 11875119) and supplemented with the indicated additives for routine culture. An aliquot of cells maintained at 37° C. are grown for two days in phenol-free media containing 5% charcoal stripped fetal bovine serum in a 25 cm^2 tissue culture flask. Using a robotic dispenser such as an EPMOTION™ 5070 unit from Eppendorf AG, MCF-7 cells are seeded at 400 cells per well in 0.2 ml of hormone-free culture medium in Corning 96-well plates. The cells are adapted for 3 days in the hormone-free culture medium prior to adding the chemical to be assayed for estrogenic activity. The media containing the test chemical is replaced daily for 6 days. At the end of a 7 day exposure to the test chemical, the media is removed, the wells are washed once with 0.2 ml of HBSS (Hanks' Balanced Salt Solution), and then assayed to quantify amounts of DNA per well using a micro-plate modification of the Burton diphenylamine (DPA) assay, which is used to calculate the level of cell proliferation. […]
Consider `C[C@]12CC[C@@H]3c4ccc(O)cc4CC[C@H]3[C@@H]1CC[C@@H]2O` [17β-estradiol], for which the “Log RPE” value was determined as 2.00.

`Oc1ccc(Cc2ccc(O)cc2)cc1` [Bisphenol F]: the “Log RPE” value is −2.

Consider `O=S(=O)(c1ccc(O)cc1)c1ccc(O)cc1` [Bisphenol S], for which the “Log RPE” value is on record as −2.

The target of another data set is T1, human estrogen receptor (Homo sapiens, UniProt P03372).
T1 sequence (P03372 1-595): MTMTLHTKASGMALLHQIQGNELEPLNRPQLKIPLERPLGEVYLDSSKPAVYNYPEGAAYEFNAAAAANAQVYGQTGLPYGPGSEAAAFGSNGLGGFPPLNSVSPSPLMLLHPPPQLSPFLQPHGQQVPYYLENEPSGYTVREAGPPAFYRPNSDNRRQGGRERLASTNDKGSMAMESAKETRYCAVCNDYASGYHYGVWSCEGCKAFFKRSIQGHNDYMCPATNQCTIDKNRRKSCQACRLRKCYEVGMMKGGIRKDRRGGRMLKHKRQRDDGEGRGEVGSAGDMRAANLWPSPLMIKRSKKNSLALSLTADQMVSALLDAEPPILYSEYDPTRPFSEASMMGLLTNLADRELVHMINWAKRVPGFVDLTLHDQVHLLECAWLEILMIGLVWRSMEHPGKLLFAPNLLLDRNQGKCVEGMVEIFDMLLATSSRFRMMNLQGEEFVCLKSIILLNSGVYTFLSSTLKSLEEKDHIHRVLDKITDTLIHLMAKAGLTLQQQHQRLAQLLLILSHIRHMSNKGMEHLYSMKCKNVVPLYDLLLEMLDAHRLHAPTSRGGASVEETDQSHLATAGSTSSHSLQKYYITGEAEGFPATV
As to the kind of experiment: suitable in vitro assay of estrogenic activity whose results correlate with the MCF-7 assay (outside toxicology laboratory). The conditions noted are these: in vitro assay correlated to MCF-7 assay through common reference compounds. Here is the method: The polyhydric phenols used to make the diglycidyl ethers of each of Runs I-III were assayed for estrogenic activity by an outside toxicology laboratory using a suitable assay whose results are known to be directly correlatable to the MCF-7 assay based on common reference compounds.
`Cc1cc(Cc2cc(C)c(O)c(C)c2)cc(C)c1O` [Structure 6, 4,4′-methylenebis(2,6-dimethylphenol)]: the estrogenic activity result is reported as “do not exhibit appreciable estrogenic activity”.

In the case of `CCCC(c1cc(C(C)(C)C)c(O)cc1C)c1cc(C(C)(C)C)c(O)cc1C` [Structure 7, 4,4′-butylidenebis(2-t-butyl-5-methylphenol)], the estrogenic activity result was “do not exhibit appreciable estrogenic activity”.

Regarding `CC(C)(C)c1cc(Cc2cc(C(C)(C)C)c(O)c(C(C)(C)C)c2)cc(C(C)(C)C)c1O` [Structure 8, 4,4′-methylenebis(2,6-di-t-butylphenol)], the estrogenic activity result is “do not exhibit appreciable estrogenic activity”.

On to `Cc1cc(Cc2cc(C)cc(C(C)(C)C)c2O)c(O)c(C(C)(C)C)c1` [Structure 9], for which the estrogenic activity result is on record as “do not exhibit appreciable estrogenic activity”.

With `CC(C)(C)c1cc(O)c(C(C)(C)C)cc1O` [Structure 12, 2,5-di-t-butylhydroquinone], the estrogenic activity entry was “do not exhibit appreciable estrogenic activity”.
